Patent US20040147720A1, “Novel guasonine triphosphate-binding protein -coupled receptor place 6002312, its gene and production and use of the same” (priority 2001, published 2004)

Experiments:
HEK293 cells (Mock) = HEK293 cells (Mock) with pcDNA3.1(−), not expressing PLACE6002312; [^3H]-histamine 0, 40, 80, 160 nM; room temperature 1 hr; FIG. 7
Procedure: (§1) The ligand-binding assay can serve as a direct method of receptor pharmacology, and is applicable to high-throughput systems. […] First, human embryonic kidney 293 (HEK293) cells were plated on a 10-cm cell culture dish at the cell density of 1×10^6 cells/dish, and incubated in a humidified incubator under 5% CO2 at 37° C. for 24 hr. Then, 10 μg/dish of pcDNA3.1(−)-PLACE6002312 plasmid was transfected by the calcium phosphate method (Mol. Pharm. (1997)-51: 171). After the culturing was continued for 14 hr, the medium was changed with fresh D-MEM containing 10% FBS, and the cells were incubated for another 2 days. After the culturing had completed, the cells were washed with PBS(−), and then suspended in FBS-free D-MEM at the cell density of 1×10^6 cells/ml. The cell suspension were aliquoted (50 μl/well) into flat-bottomed 96-well plate (Sumitomo Bakelite Co.) pre-siliconized with Siliconize L-25 (Fuji Systems). 50-μl aliquots of D-MEM were added to each well, and then radio-labeled [^3H]-histamine was added thereto at the final concentrations of 0, 40, 80, and 160 nM. The plate was incubated at room temperature for 1 hr. Assays for the non-specific binding of [^3H]-histamine were carried out using D-MEM to which unlabeled histamine had been added previously at the final concentration of 1×10^−5 M. […]

PLACE6002312 polypeptide = PLACE6002312 polypeptide (Homo sapiens, UniProt Q8TDU6); conditions: HEK293 cells with pcDNA3.1(−)-PLACE6002312; [^3H]-histamine 0, 40, 80, 160 nM; room temperature 1 hr; non-specific binding with 1×10^−5 M unlabeled histamine; FIG. 7
Sequence of PLACE6002312 polypeptide (Q8TDU6 whole entry): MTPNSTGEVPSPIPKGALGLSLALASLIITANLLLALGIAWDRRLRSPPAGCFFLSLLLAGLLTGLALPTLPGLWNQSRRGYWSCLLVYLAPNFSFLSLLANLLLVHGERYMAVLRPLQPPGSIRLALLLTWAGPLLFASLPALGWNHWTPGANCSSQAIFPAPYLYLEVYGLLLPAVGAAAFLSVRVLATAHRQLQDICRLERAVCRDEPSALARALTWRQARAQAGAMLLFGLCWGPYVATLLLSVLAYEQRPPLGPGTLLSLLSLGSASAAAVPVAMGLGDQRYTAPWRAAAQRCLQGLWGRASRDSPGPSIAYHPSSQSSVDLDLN
Procedure: as §1

Compound: NCCc1c[nH]cn1 [histamine]
- specific binding to [^3H]-histamine (total binding minus non-specific binding) (HEK293 cells (Mock)): undetectable
- specific binding to [^3H]-histamine (total binding minus non-specific binding) (PLACE6002312 polypeptide): detected
